Converted amounts (≈) assume the structure as drawn. Read-outs that look alike come from different tables or passages of the source.
How the values were obtained:
[1] = tested on: Acinetobacter baumannii DSM 30007 (ATCC 19606); assay: Antibacterial microdilution broth (EUCAST), ACI; assay type: cell-based; settings: Acinetobacter baumannii; read after 24 h; read-out: ACI MIC
[2] = tested on: Candida krusei CCM 8271 (ATCC 6258); assay: Antifungal microdilution broth (EUCAST), CK; assay type: cell-based; settings: Pichia kudriavzevii; read after 24 h; read-out: CK MIC
[3] = tested on: Aspergillus fumigatus ATCC 204305; assay: Antifungal microdilution broth (EUCAST), AF; assay type: cell-based; settings: Aspergillus fumigatus, ATCC204305; read after 24 h; read-out: AF MIC
[4] = tested on: Staphylococcus epidermidis CCM 4418 (ATCC 12228); assay: Antibacterial microdilution broth (EUCAST), SE; assay type: cell-based; settings: read after 24 h, read-out: SE MIC
[5] = tested on: Mycobacterium smegmatis DSM 43465 (ATCC 607); assay: Microplate Alamar Blue Assay (MABA), M. smegmatis; assay type: cell-based; settings: Mycolicibacterium smegmatis; MABA, resazurin after 48 h; read-out: M. smegmatis MIC
[6] = tested on: M. aurum DSM 43999 (ATCC 23366); assay: Microplate Alamar Blue Assay (MABA), M. aurum; assay type: cell-based; settings: Mycolicibacterium aurum; MABA, resazurin after 72 h; read-out: M. aurum MIC
[7] = tested on: Enterococcus faecalis CCM 4224 (ATCC 29212); assay: Antibacterial microdilution broth (EUCAST), EF; assay type: cell-based; settings: Enterococcus faecalis; read after 24 h; read-out: EF MIC
[8] = tested on: Lichtheimia corymbifera CCM 8077; assay: Antifungal microdilution broth (EUCAST), LC; assay type: cell-based; settings: Lichtheimia corymbifera, CCM8077; read after 24 h; read-out: LC MIC
[9] = tested on: Staphylococcus aureus subsp. aureus CCM 4223 (ATCC 29213); assay: Antibacterial microdilution broth (EUCAST), SA; assay type: cell-based; settings: Staphylococcus aureus; read after 24 h; read-out: SA MIC
[10] = tested on: HepG2 human hepatocellular carcinoma cells; assay: In vitro HepG2 cytotoxicity (CellTiter 96); settings: * limit = highest evaluated concentration (precipitation in medium), ** over the 1000 µM limit
[11] = tested on: Trichophyton interdigitale CCM 8377 (ATCC 9533); assay: Antifungal microdilution broth (EUCAST), TI; assay type: cell-based; settings: Trichophyton interdigitale, 72 h, read-out: TI MIC
[12] = tested on: Aspergillus flavus CCM 8363; assay: Antifungal microdilution broth (EUCAST), AFla; assay type: cell-based; settings: Aspergillus flavus, CCM8363; read after 24 h; read-out: AFla MIC
[13] = tested on: Candida tropicalis CCM 8264 (ATCC 750); assay: Antifungal microdilution broth (EUCAST), CT; assay type: cell-based; settings: Candida tropicalis; read after 24 h; read-out: CT MIC
[14] = tested on: Escherichia coli CCM 3954 (ATCC 25922); assay: Antibacterial microdilution broth (EUCAST), EC; assay type: cell-based; settings: Escherichia coli; read after 24 h; read-out: EC MIC
[15] = tested on: Candida parapsilosis CCM 8260 (ATCC 22019); assay: Antifungal microdilution broth (EUCAST), CP; assay type: cell-based; settings: Lodderomyces parapsilosis; read after 24 h; read-out: CP MIC
[16] = tested on: Candida albicans CCM 8320 (ATCC 24433); assay: Antifungal microdilution broth (EUCAST), CA; assay type: cell-based; settings: Candida albicans; read after 24 h; read-out: CA MIC
[17] = tested on: Mycobacterium tuberculosis H37Ra ITM-M006710 (ATCC 9431); assay: Microplate Alamar Blue Assay (MABA), Mtb H37Ra; assay type: cell-based; settings: for MIC: Mycobacterium tuberculosis, 120 h, pH 6.6, MABA, Middlebrook 7H9 broth pH 6.6, resazurin after 120 h, read-out: Mtb H37Ra MIC; for antimycobacterial activity (in words): activity refers to Mtb H37Ra from the primary screening if not otherwise stated
[18] = tested on: Pseudomonas aeruginosa CCM 3955 (ATCC 27853); assay: Antibacterial microdilution broth (EUCAST), PA; assay type: cell-based; settings: Pseudomonas aeruginosa; read after 24 h; read-out: PA MIC
[19] = tested on: Staphylococcus aureus subsp. aureus methicillin-resistant (MRSA) CCM 4750 (ATCC 43300); assay: Antibacterial microdilution broth (EUCAST), MRSA; assay type: cell-based; settings: Staphylococcus aureus; read after 24 h; read-out: MRSA MIC
[20] = tested on: Klebsiella pneumoniae CCM 4415 (ATCC 10031); assay: Antibacterial microdilution broth (EUCAST), KP; settings: read after 24 h
[21] = Homo sapiens, HepG2, 24 h, read-out: HepG2 IC50, 24 h incubation

SMILES	MIC [1]	MIC [2]	MIC [3]	MIC [4]	MIC [5]	MIC [6]	MIC [7]	MIC [8]	MIC [9]	IC50 [10, 21]	melting point	MIC [11]	MIC [12]	MIC [13]	MIC [14]	MIC [15]	MIC [16]	MIC [17]	MIC [18]	MIC [19]	also measured
NC(=O)c1nccnc1NC(=O)c1ccccc1C(F)(F)F [Compound 20]	> 500 µM	> 500 µM	> 500 µM	> 500 µM	≥ 500 µg/mL	≥ 500 µg/mL	> 500 µM	> 500 µM	> 500 µM	> 250 µM	201.5 to 202.4 °C	> 500 µM	> 500 µM	> 500 µM	> 500 µM	> 500 µM	> 500 µM	500 µg/mL (≈ 1610 µM)	> 500 µM	> 500 µM	KP MIC [20]: > 500 µM
NC(=O)c1nccnc1NC(=O)c1ccc([N+](=O)[O-])cc1 [Compound 21, 3-(4-nitrobenzamido)pyrazine-2-carboxamide]	> 125 µM	> 125 µM	> 125 µM	> 125 µM	250 µg/mL (≈ 870 µM)	≥ 500 µg/mL	> 125 µM	> 125 µM	> 125 µM	> 100 µM	> 300 °C	> 125 µM	> 125 µM	> 125 µM	> 125 µM	> 125 µM	> 125 µM	250 µg/mL (≈ 870 µM)	> 125 µM	> 125 µM	KP MIC [20]: > 125 µM
NC(=O)c1nccnc1NC(=O)Cc1ccc(F)cc1 [Compound 25]	> 250 µM	> 250 µM	> 250 µM	> 250 µM	≥ 250 µg/mL	≥ 250 µg/mL	> 250 µM	> 250 µM	> 250 µM	> 100 µM	225.3 to 227.3 °C	> 250 µM	> 250 µM	> 250 µM	> 250 µM	> 250 µM	> 250 µM	≥ 250 µg/mL	> 250 µM	> 250 µM	antimycobacterial activity (in words) [17]: inactive; KP MIC [20]: > 250 µM
NC(=O)c1nccnc1NC(=O)CCc1ccccc1 [Compound 26]	> 500 µM	> 500 µM	> 500 µM	> 500 µM	≥ 500 µg/mL	≥ 500 µg/mL	> 500 µM	> 500 µM	> 500 µM	> 500 µM	160.3 to 161.5 °C	> 500 µM	> 500 µM	> 500 µM	> 500 µM	> 500 µM	> 500 µM	125 µg/mL (≈ 462 µM)	> 500 µM	> 500 µM	antimycobacterial activity (in words) [17]: inactive; KP MIC [20]: > 500 µM
NC(=O)c1nccnc1NC(=O)C1CCCCC1 [Compound 27]	> 500 µM	> 500 µM	> 500 µM	> 500 µM	250 µg/mL (≈ 1010 µM)	≥ 500 µg/mL	> 500 µM	> 500 µM	> 500 µM	> 1000 µM	105.5 to 107 °C	> 500 µM	> 500 µM	> 500 µM	> 500 µM	> 500 µM	> 500 µM	125 µg/mL (≈ 503 µM)	> 500 µM	> 500 µM	KP MIC [20]: > 500 µM
CCCC(=O)Nc1nccnc1C(N)=O [Compound 29]	> 500 µM	> 500 µM	> 500 µM	> 500 µM	≥ 500 µg/mL	≥ 500 µg/mL	> 500 µM	> 500 µM	> 500 µM	> 1000 µM	158.7 to 159.5 °C	> 500 µM	> 500 µM	> 500 µM	> 500 µM	> 500 µM	> 500 µM	≥ 500 µg/mL	> 500 µM	> 500 µM	KP MIC [20]: > 500 µM
CCCCCC(=O)Nc1nccnc1C(N)=O [Compound 30]	> 500 µM	> 500 µM	> 500 µM	> 500 µM	≥ 500 µg/mL	≥ 250 µg/mL	> 500 µM	> 500 µM	> 500 µM	560 µM	138.4 to 139 °C	> 500 µM	> 500 µM	> 500 µM	> 500 µM	> 500 µM	> 500 µM	≥ 500 µg/mL	> 500 µM	> 500 µM	KP MIC [20]: > 500 µM
CCCCCCC(=O)Nc1nccnc1C(N)=O [Compound 31]	> 125 µM	> 125 µM	> 125 µM	> 125 µM	≥ 500 µg/mL	≥ 500 µg/mL	> 125 µM	> 125 µM	> 125 µM	> 250 µM	131.5 to 132.1 °C	> 125 µM	> 125 µM	> 125 µM	> 125 µM	> 125 µM	> 125 µM	≥ 500 µg/mL	> 125 µM	> 125 µM	KP MIC [20]: > 125 µM
CCCCCCCC(=O)Nc1nccnc1C(N)=O [Compound 32]	> 250 µM	> 250 µM	> 250 µM	> 250 µM	250 µg/mL (≈ 946 µM)	125 µg/mL (≈ 473 µM)	> 250 µM	> 250 µM	> 250 µM	> 1000 µM	127.9 to 129.3 °C	> 250 µM	> 250 µM	> 250 µM	> 250 µM	> 250 µM	> 250 µM	250 µg/mL (≈ 946 µM)	> 250 µM	> 250 µM	KP MIC [20]: > 250 µM
CNC(=O)c1nccnc1NC(=O)c1ccc(C)cc1 [Compound 33]	> 500 µM	> 500 µM	> 500 µM	> 500 µM	≥ 500 µg/mL	125 µg/mL (≈ 462 µM)	> 500 µM	> 500 µM	> 500 µM	765 µM	178.4 to 179.5 °C	> 500 µM	> 500 µM	> 500 µM	> 500 µM	> 500 µM	> 500 µM	250 µg/mL (≈ 925 µM)	> 500 µM	> 500 µM	IC50 ([10]; read-out: HepG2 IC50, 24 h incubation): 764 µM; KP MIC [20]: > 500 µM
CNC(=O)c1nccnc1NC(=O)c1ccc(Cl)cc1 [Compound 34]	> 125 µM	> 125 µM	> 125 µM	> 125 µM	≥ 500 µg/mL	≥ 500 µg/mL	> 125 µM	> 125 µM	> 125 µM	> 100 µM	204.2 to 205.1 °C	> 125 µM	> 125 µM	> 125 µM	> 125 µM	> 125 µM	> 125 µM	≥ 500 µg/mL	> 125 µM	> 125 µM	KP MIC [20]: > 125 µM

Reference: publication PMC9687610, “Adenosine-Mimicking Derivatives of 3-Aminopyrazine-2-Carboxamide: Towards Inhibitors of Prolyl-tRNA Synthetase with Antimycobacterial Activity” (Biomolecules, 2022)
